From US20250144094A1 (Erasca, Inc., priority 2021, published 2025)

What follows are compounds tested against Recombinant human ULK1 (1-649) (Homo sapiens (Human), UniProt O75385) (assay: ULK1 ADP Glo kinase activity assay (MBP substrate)). Conditions: 25° C., 40 minutes, read-out: ULK1 biochemical IC50.
Outline: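 GST-tagged ULK1 (1-649) from Sf9 cells phosphorylated MBP, with ATP, for 40 min at 25 °C across a 12-point series from 10 uM. ADP formed was quantified by ADP-Glo luminescence against DMSO controls. IC50 came from a four-parameter variable-slope fit of log concentration.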

Recombinant human ULK1 (1-649), sequence (O75385 1-649): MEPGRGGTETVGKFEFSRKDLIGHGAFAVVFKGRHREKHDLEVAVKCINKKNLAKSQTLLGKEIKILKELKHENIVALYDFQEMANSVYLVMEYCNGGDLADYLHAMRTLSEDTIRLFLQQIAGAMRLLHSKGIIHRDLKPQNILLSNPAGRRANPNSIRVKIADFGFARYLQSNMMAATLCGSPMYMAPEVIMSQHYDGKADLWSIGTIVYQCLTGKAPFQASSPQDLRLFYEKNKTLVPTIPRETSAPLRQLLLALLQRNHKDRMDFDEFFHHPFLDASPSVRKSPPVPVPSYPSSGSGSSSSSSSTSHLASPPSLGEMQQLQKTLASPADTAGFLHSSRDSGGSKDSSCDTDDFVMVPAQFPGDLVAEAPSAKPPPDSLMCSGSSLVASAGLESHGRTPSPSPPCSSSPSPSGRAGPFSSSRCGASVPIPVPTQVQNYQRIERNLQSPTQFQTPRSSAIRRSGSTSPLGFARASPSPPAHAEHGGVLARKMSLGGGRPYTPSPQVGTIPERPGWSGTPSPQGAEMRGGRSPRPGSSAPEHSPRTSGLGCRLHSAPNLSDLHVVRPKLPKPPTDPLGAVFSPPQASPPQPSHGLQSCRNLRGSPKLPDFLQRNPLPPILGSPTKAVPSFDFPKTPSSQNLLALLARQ

IC50 [nM]	SMILES
≤ 10	CN1CCc2cc(Nc3ncc(C(F)(F)F)c(-c4cc(S(C)(=O)=O)cs4)n3)c(F)cc2C1 [Example 98, 7-fluoro-2-methyl-N-(4-(4-(methylsulfonyl)thiophen-2-yl)-5-(trifluoromethyl)pyrimidin-2-yl)-1,2,3,4-tetrahydroisoquinolin-6-amine]
≤ 10	Cc1cnc(Nc2cc3c(cc2Cl)CNCC3)nc1-c1cc(S(C)(=O)=O)cs1 [Example 94, 7-chloro-N-(5-methyl-4-(4-(methylsulfonyl)thiophen-2-yl)pyrimidin-2-yl)-1,2,3,4-tetrahydroisoquinolin-6-amine]
≤ 10	CN1CCc2cc(F)c(Nc3ncc(C(F)(F)F)c(-c4cc(S(C)(=O)=O)cs4)n3)cc2C1 [Example 111, 6-fluoro-2-methyl-N-[4-(4-methylsulfonyl-2-thienyl)-5-(trifluoromethyl)pyrimidin-2-yl]-3,4-dihydro-1H-isoquinolin-7-amine]
≤ 10	NC(=O)c1csc(-c2nc(Nc3cc4c(cc3C3CC3)CNCC4)ncc2C(F)(F)F)c1 [Example 10, 5-(2-((7-cyclopropyl-1,2,3,4-tetrahydroisoquinolin-6-yl)amino)-5-(trifluoromethyl)pyrimidin-4-yl)thiophene-3-carboxamide]
≤ 10	CS(=O)(=O)c1cc(-c2nc(Nc3cc4c(cc3Cl)CNCC4)ncc2C(F)(F)F)sc1N1CCOCC1 [Example 83, 7-Chloro-N-[4-(4-methylsulfonyl-5-morpholino-2-thienyl)-5-(trifluoromethyl)pyrimidin-2-yl]-1,2,3,4-tetrahydroisoquinolin-6-amine]
≤ 10	COCCOc1sc(-c2nc(Nc3cc4c(cc3Cl)CNCC4)ncc2C(F)(F)F)cc1C(N)=O [Example 55, 5-(2-((7-chloro-1,2,3,4-tetrahydroisoquinolin-6-yl)amino)-5-(trifluoromethyl)pyrimidin-4-yl)-2-(2-methoxyethoxy)thiophene-3-carboxamide]
≤ 10	CN1CCCc2cc(Nc3ncc(C(F)(F)F)c(-c4cc(S(C)(=O)=O)cs4)n3)c(Cl)cc2C1 [Example 133, 8-chloro-2-methyl-N-(4-(4-(methylsulfonyl)thiophen-2-yl)-5-(trifluoromethyl)pyrimidin-2-yl)-2,3,4,5-tetrahydro-1H-benzo[c]azepin-7-amine]
≤ 10	CS(=O)(=O)c1csc(-c2nc(Nc3cc4c(cc3Cl)CNC4)ncc2C(F)(F)F)c1 [Example 73, 6-chloro-N-(4-(4-(methylsulfonyl)thiophen-2-yl)-5-(trifluoromethyl)pyrimidin-2-yl)isoindolin-5-amine]
10 to 50	Nc1csc(-c2nc(Nc3cc4c(cc3Cl)CNCC4)ncc2C(F)(F)F)c1 [Example 15, N-(4-(4-aminothiophen-2-yl)-5-(trifluoromethyl)pyrimidin-2-yl)-7-chloro-1,2,3,4-tetrahydroisoquinolin-6-amine]
≤ 10	CSc1cc2c(cc1Nc1ncc(C(F)(F)F)c(-c3cc4c(s3)CCNC4=O)n1)CCNC2 [Example 35, 2-(2-((7-(Methylthio)-1,2,3,4-tetrahydroisoquinolin-6-yl)amino)-5-(trifluoromethyl)pyrimidin-4-yl)-6,7-dihydrothieno[3,2-c]pyridin-4(5H)-one]
> 500	NC(=O)c1csc(-c2nc(Nc3cc4c(cc3Cl)CNCC4)ncc2C(N)=O)c1 [Example 26, 4-(4-Carbamoylthiophen-2-yl)-2-((7-chloro-1,2,3,4-tetrahydroisoquinolin-6-yl)amino)pyrimidine-5-carboxamide]
100 to 500	O=S(=O)(CCN1CCOCC1)c1csc(-c2nc(Nc3cc4c(cc3Cl)CNCC4)ncc2C(F)(F)F)c1 [Example 54, 7-chloro-N-(4-(4-((2-morpholinoethyl)sulfonyl)thiophen-2-yl)-5-(trifluoromethyl)pyrimidin-2-yl)-1,2,3,4-tetrahydroisoquinolin-6-amine]
≤ 10	O=C1NCCc2sc(-c3nc(Nc4cc5c(cc4F)CNCC5)ncc3C(F)(F)F)cc21 [Example 43, 2-(2-((7-fluoro-1,2,3,4-tetrahydroisoquinolin-6-yl)amino)-5-(trifluoromethyl)pyrimidin-4-yl)-6,7-dihydrothieno[3,2-c]pyridin-4(5H)-one]
≤ 10	CN1CCc2cc(Nc3ncc(C(F)(F)F)c(-c4cc5c(s4)CN(C)CCS5(=O)=O)n3)c(Cl)cc2C1 [Example 109, 7-chloro-2-methyl-N-[4-(4-methyl-1,1-dioxo-3,5-dihydro-2H-thieno[2,3-f][1,4]thiazepin-7-yl)-5-(trifluoromethyl)pyrimidin-2-yl]-3,4-dihydro-1H-isoquinolin-6-amine]
≤ 10	COCCOc1sc(-c2nc(Nc3cc4c(cc3Cl)CN(C)CC4)ncc2C(F)(F)F)cc1C(N)=O [Example 66, 5-(2-((7-chloro-2-methyl-1,2,3,4-tetrahydroisoquinolin-6-yl)amino)-5-(trifluoromethyl)pyrimidin-4-yl)-2-(2-methoxyethoxy)thiophene-3-carboxamide]
≤ 10	CCc1cc2c(cc1Nc1ncc(C(F)(F)F)c(-c3cc(C(N)=O)cs3)n1)CCNC2 [Example 9, 5-(2-((7-ethyl-1,2,3,4-tetrahydroisoquinolin-6-yl)amino)-5-(trifluoromethyl)pyrimidin-4-yl)thiophene-3-carboxamide]
≤ 10	CS(=O)(=O)c1csc(-c2nc(Nc3cc4c(cc3Cl)CNCC4)ncc2C(F)(F)F)c1 [Example 32, 7-Chloro-N-(4-(4-(methylsulfonyl)thiophen-2-yl)-5-(trifluoromethyl)pyrimidin-2-yl)-1,2,3,4-tetrahydroisoquinolin-6-amine]
≤ 10	CN1CCc2cc(Nc3ncc(C(F)(F)F)c(-c4cc5c(s4)CNCCS5(=O)=O)n3)c(Cl)cc2C1 [Example 69, 7-(2-((7-chloro-2-methyl-1,2,3,4-tetrahydroisoquinolin-6-yl)amino)-5-(trifluoromethyl)pyrimidin-4-yl)-2,3,4,5-tetrahydrothieno[2,3-f][1,4]thiazepine 1,1-dioxide]
≤ 10	CCc1cc(N2CCN(C)CC2)ccc1Nc1ncc(C(F)(F)F)c(-c2cc3c(s2)CCNC3=O)n1 [Example 39, 2-(2-((2-ethyl-4-(4-methylpiperazin-1-yl)phenyl)amino)-5-(trifluoromethyl)pyrimidin-4-yl)-6,7-dihydrothieno[3,2-c]pyridin-4(5H)-one]
≤ 10	CSc1cc2c(cc1Nc1ncc(C(F)(F)F)c(-c3cc(S(C)(=O)=O)cs3)n1)CCN(C)C2 [Example 68, 2-methyl-N-(4-(4-(methylsulfonyl)thiophen-2-yl)-5-(trifluoromethyl)pyrimidin-2-yl)-7-(methylthio)-1,2,3,4-tetrahydroisoquinolin-6-amine]
10 to 50	O=c1[nH]ncc2sc(-c3nc(Nc4cc5c(cc4Cl)CNCC5)ncc3C(F)(F)F)cc12 [Example 24, 2-(2-((7-Chloro-1,2,3,4-tetrahydroisoquinolin-6-yl)amino)-5-(trifluoromethyl)pyrimidin-4-yl)thieno[2,3-d]pyridazin-4(5H)-one]
10 to 50	FC(F)(F)c1cnc(Nc2cc3c(cc2Cl)CNCC3)nc1-c1cc(C2=NCCO2)cs1 [Example 8, 7-chloro-N-(4-(4-(4,5-dihydrooxazol-2-yl)thiophen-2-yl)-5-(trifluoromethyl)pyrimidin-2-yl)-1,2,3,4-tetrahydroisoquinolin-6-amine]
≤ 10	O=C1NCCNc2sc(-c3nc(Nc4cc5c(cc4Cl)CNCC5)ncc3C(F)(F)F)cc21 [Example 53, 7-(2-((7-chloro-1,2,3,4-tetrahydroisoquinolin-6-yl)amino)-5-(trifluoromethyl)pyrimidin-4-yl)-1,2,3,4-tetrahydro-5H-thieno[2,3-e][1,4]diazepin-5-one]
10 to 50	N#Cc1csc(-c2nc(Nc3cc4c(cc3Cl)CNCC4)ncc2C(F)(F)F)c1 [Example 25, 5-(2-((7-Chloro-1,2,3,4-tetrahydroisoquinolin-6-yl)amino)-5-(trifluoromethyl)pyrimidin-4-yl)thiophene-3-carbonitrile]
≤ 10	CCN1CCc2sc(-c3nc(Nc4cc5c(cc4Cl)CNCC5)ncc3C(F)(F)F)cc2C1=O [Example 22, 2-(2-((7-chloro-1,2,3,4-tetrahydroisoquinolin-6-yl)amino)-5-(trifluoromethyl)pyrimidin-4-yl)-5-ethyl-6,7-dihydrothieno[3,2-c]pyridin-4(5H)-one]
≤ 10	CN1CCc2cc(Nc3ncc(C(F)(F)F)c(-c4cc(S(C)(=O)=O)c(C(N)=O)s4)n3)c(Cl)cc2C1 [Example 63, 5-(2-((7-Chloro-2-methyl-1,2,3,4-tetrahydroisoquinolin-6-yl)amino)-5-(trifluoromethyl)pyrimidin-4-yl)-3-(methylsulfonyl)thiophene-2-carboxamide]
≤ 10	CS(=O)(=O)c1csc(-c2nc(Nc3ccc4c(c3)CNCC4)ncc2C(F)(F)F)c1 [Example 101, N-[4-(4-methanesulfonylthiophen-2-yl)-5-(trifluoromethyl)pyrimidin-2-yl]-1,2,3,4-tetrahydroisoquinolin-7-amine]
≤ 10	O=S1(=O)CCNCc2sc(-c3nc(Nc4cc5c(cc4Cl)CNCC5)ncc3C(F)(F)F)cc21 [Example 64, 7-(2-((7-chloro-1,2,3,4-tetrahydroisoquinolin-6-yl)amino)-5-(trifluoromethyl)pyrimidin-4-yl)-2,3,4,5-tetrahydrothieno[2,3-f][1,4]thiazepine 1,1-dioxide]
≤ 10	Cn1ncc2sc(-c3nc(Nc4cc5c(cc4Cl)CNCC5)ncc3C(F)(F)F)cc2c1=O [Example 31, 2-(2-((7-Chloro-1,2,3,4-tetrahydroisoquinolin-6-yl)amino)-5-(trifluoromethyl)pyrimidin-4-yl)-5-methylthieno[2,3-d]pyridazin-4(5H)-one]
≤ 10	CN1CCc2cc(Nc3ncc(C(F)(F)F)c(-c4cc(S(C)(=O)=O)cs4)n3)c(Cl)cc2C1 [Example 95, 7-chloro-2-methyl-N-(4-(4-(methylsulfonyl)thiophen-2-yl)-5-(trifluoromethyl)pyrimidin-2-yl)-1,2,3,4-tetrahydroisoquinolin-6-amine]
